Measurements published in PubChem BioAssay AID1552 (Sanford-Burnham Center for Chemical Genomics, 2009).
Calls of active or inactive are those of the source. No rule for the calls is given here.

biological target: Ubiquitin-conjugating enzyme E2 N (Homo sapiens) (UniProt P61088); assay: NMR detection of UBE2N ligand binding – biophysical, purified protein (AID 1552); settings: NMR binding to purified UBE2N
Sequence (P61088 whole entry, looked up): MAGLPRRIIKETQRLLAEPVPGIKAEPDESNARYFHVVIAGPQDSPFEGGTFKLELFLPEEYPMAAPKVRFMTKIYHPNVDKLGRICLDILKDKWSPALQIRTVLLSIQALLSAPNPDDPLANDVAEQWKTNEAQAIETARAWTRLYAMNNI

SMILES	Kd
C[C@H]1O[C@@H](O[C@H]2[C@@H](O)C[C@H](O[C@H]3[C@@H](O)C[C@H](O[C@H]4CC[C@]5(C)C6CC[C@]7(C)[C@@H](C8=CC(=O)OC8)CC[C@]7(O)C6CC[C@@H]5C4)O[C@@H]3C)O[C@@H]2C)C[C@H](O)[C@@H]1O (some centres undefined)	> 4 mM (inactive)
O=C(O)C1C(=O)NCC1c1ccccc1 (centres undefined)	> 4 mM (inactive)
CC1(C)SCC(C(=O)O)N1C=O (centres undefined)	> 4 mM (inactive)
Nc1ccc(-n2cccn2)cc1	> 4 mM (inactive)
O=C1C(=O)N(CNc2ncccn2)c2ccccc21	> 4 mM (inactive)
OCC1CCN(c2ncccn2)CC1	> 4 mM (inactive)
Cc1noc(C)c1C(=O)Nc1ccc2c(c1)CCC2	> 4 mM (inactive)
O=C(O)CSCc1c(F)cccc1Cl	> 4 mM (inactive)
Cn1c(=O)n(CC(=O)N2CCOCC2)c2ccccc21	> 4 mM (inactive)
Nc1ccc(NS(=O)(=O)c2ccc(N)cc2)cc1	> 4 mM (inactive)
O=C(O)C1CCCN1Cc1c[nH]c2ccccc12 (centres undefined)	> 4 mM (inactive)
S=c1ccc(N2CCCCC2)n[nH]1	> 4 mM (inactive)
COc1c(C(C)C)oc2cc3oc(=O)ccc3cc12	> 4 mM (inactive)
NC(CC(=O)O)C(=O)Nc1ccc(Cl)cc1 (centres undefined)	> 4 mM (inactive)
Cc1n[nH]c(=O)nc1N1CCN(c2ccccc2)CC1	> 4 mM (inactive)
Cc1ccn(S(=O)(=O)c2ccc(F)cc2)n1	> 4 mM (inactive)
OC[C@@H](O)[C@@H](O[C@@H]1O[C@H](CO)[C@@H](O)[C@H](O)[C@H]1O)[C@H](O)[C@@H](O)CO	> 4 mM (inactive)
CCn1nnc2c(NCc3ccccn3)ncnc21	> 4 mM (inactive)
CNC(=S)N1CCN(C(=O)c2ccco2)CC1	> 4 mM (inactive)
O=C1c2cccnc2C(=O)N1Cc1ccc2c(c1)OCO2	> 4 mM (inactive)
Cc1cc(=O)n2ncn(Cc3ccccc3)c2n1	> 4 mM (inactive)
S=C(NC1CC1)NN1CCOCC1	> 4 mM (inactive)
CCN1C[C@@]2(COC)C3[C@@H](OC)[C@H]4[C@@H]1[C@]3(C(OC)C[C@H]2O)C1C[C@@]2(O)[C@H](OC(=O)c3ccccc3)C1[C@]4(OC(C)=O)[C@@H](O)[C@@H]2OC (some centres undefined)	> 4 mM (inactive)

SMILES	Kd
CC(=O)Oc1ccc(/C=C/c2cc(OC(C)=O)cc(OC(C)=O)c2)cc1	> 4 mM (inactive)
COc1cc(OC)c2c(=O)c(O)c(-c3ccc(OC)c(OC)c3)oc2c1	> 4 mM (inactive)
CC(=O)Nc1ccccc1OCC(N)=O	> 4 mM (inactive)
Cc1cc(C(=O)NC2=NCCS2)cs1	> 4 mM (inactive)
O=C(O)c1csc(-c2cccnc2)n1	> 4 mM (inactive)
CC(=O)NC(C)(C)C1CC=C(C)/C(=N\O)C1 (centres undefined)	> 4 mM (inactive)
CS(=O)(=O)NN=C1CCCCC1	> 4 mM (inactive)
O=c1/c(=C/c2cccs2)sc2ncnn12	> 4 mM (inactive)
CS/C(N)=C\C(C)=O	> 4 mM (inactive)
COc1cccc(C(=O)N2CCOCC2)c1	> 4 mM (inactive)
NC(=O)C1CCN(C(=O)Nc2ccccc2)CC1	> 4 mM (inactive)
O=c1[nH]nc(Cc2ccccn2)c2ccccc12	> 4 mM (inactive)
CC(C)NC(=S)NCc1cnn(C)c1	> 4 mM (inactive)
C=C1C([C@]2(C)C(CC(=O)OC)[C@@](C)(COC(C)=O)OC(=O)C[C@@H]2OC(C)=O)[C@@H](OC=O)[C@H](OC(=O)C(O)C(C)CC)[C@@]2(C)[C@H](c3ccoc3)CC(=O)C12O (some centres undefined)	> 4 mM (inactive)
COC(=O)[C@@H]1OC(=O)[C@H]2O[C@@]23[C@@]1(C)CCC1[C@@]2(C)CCC(=O)C(C)(C)C2C[C@@H](OC(C)=O)[C@]13C (some centres undefined)	> 4 mM (inactive)
O=C1NC(=O)C(Cc2ccccc2)C(=O)N1	> 4 mM (inactive)
Cc1occc1C(=O)Nc1cc(C(C)(C)C)on1	> 4 mM (inactive)
NC12CC3CC(C1)CC(CC(=O)O)(C3)C2	> 4 mM (inactive)
COc1ccc2ccc(=O)oc2c1CC=C(C)C	> 4 mM (inactive)
Cc1cc(C)n(/N=C\c2cccs2)c(=O)c1C(N)=O	> 4 mM (inactive)
Cc1cc(C)n(-c2cccc3cccnc23)n1	> 4 mM (inactive)
Cc1c(C(=O)Nc2ccncc2)oc2c1C(=O)CC(C)(C)C2	> 4 mM (inactive)
COCCOc1nc2ccccc2nc1C	> 4 mM (inactive)

SMILES	Kd
OCc1ccc(N2CCOCC2)cc1	> 4 mM (inactive)
Cc1nnc(N2CCN(c3ccccc3)CC2)[nH]c1=O	> 4 mM (inactive)
Cn1c(CN2CC(c3ccccc3)CC2=O)n[nH]c1=S (centres undefined)	> 4 mM (inactive)
Cc1n[nH]c(C)c1N	> 4 mM (inactive)
O=C(CCc1n[nH]c(=O)[nH]c1=O)NCc1ccccc1	> 4 mM (inactive)
COc1c(C)c2c(c(O)c1C/C=C(\C)CCC(=O)O)C(=O)OC2	> 4 mM (inactive)
COc1c(O)cc2oc3cc(O)c(CC=C(C)C)c(O)c3c(=O)c2c1CC=C(C)C	> 4 mM (inactive)
Cc1cc(C(=O)N2CCOCC2)c(C)o1	> 4 mM (inactive)
Cc1onc(-c2c(F)cccc2Cl)c1C(N)=O	> 4 mM (inactive)
O=C1CCCN1c1ccc(S(=O)O)cc1	> 4 mM (inactive)
NC(=O)Cn1cnc2c(cnn2-c2ccccc2)c1=O	> 4 mM (inactive)
O=S(=O)(O)c1cc[n+]([O-])cc1	> 4 mM (inactive)
O=C(O)c1cc2ccccc2s1	> 4 mM (inactive)
Cc1cccn2cc(CNc3ccccc3)nc12	> 4 mM (inactive)
Nc1ccc2nsnc2c1	> 4 mM (inactive)
Nc1nnc(COc2cccc(C(F)(F)F)c2)s1	> 4 mM (inactive)
Cc1nn(-c2ccccc2)nc1CO	> 4 mM (inactive)
C[C@@H]1CC[C@@]23CCC4(C)[C@@](C=CC5[C@@]6(C)CCC(=O)C(C)(C)C6CC[C@]54C)(OC2=O)C3[C@H]1C (some centres undefined)	> 4 mM (inactive)
OC1CC(c2ccccc2)NC2(CCCC2)C1 (centres undefined)	> 4 mM (inactive)
O=C(Nc1ccccc1C(F)(F)F)c1cnccn1	> 4 mM (inactive)
Cc1cc(C(=O)Nc2ccccn2)no1	> 4 mM (inactive)
CN(C)C(=O)Nc1ccc(F)cc1F	> 4 mM (inactive)
CC(=O)NC(=S)Nc1ccccc1C(N)=O	> 4 mM (inactive)

SMILES	Kd
NC(=O)CNC(=O)c1ccccc1	> 4 mM (inactive)
NCC(=O)c1ccccc1	> 4 mM (inactive)
CCCn1cnc2sc(C(N)=O)c(C)c2c1=O	> 4 mM (inactive)
O=C(NCc1cccc(Cl)c1)c1ccco1	> 4 mM (inactive)
CC1=CC2C(C(C)C)CCC(C)(O)C2CC1 (centres undefined)	> 4 mM (inactive)
O=C(O)c1ccccc1C(=O)Nc1ccccc1	> 4 mM (inactive)
CC(=O)c1sc(NC(=O)C=C(C)C)nc1C	> 4 mM (inactive)
CC1(C)NC(=O)N(CN2CCOCC2)C1=O	> 4 mM (inactive)
CCc1ccccc1NC(=O)c1cnccn1	> 4 mM (inactive)
Cc1[nH]ccc2c1[nH]c1cc(=O)ccc12	> 4 mM (inactive)
CCOC(=O)C1C(=O)C2CCN1CC2 (centres undefined)	> 4 mM (inactive)
CC(=O)c1cc(-c2nc3ccccc3n2C)n(C)c1	> 4 mM (inactive)
C[C@@H]1OC(O[C@H]2[C@H](OC(=O)[C@]34CCC(C)(C)CC3C3=CCC5[C@@]6(C)CC[C@H](OC7O[C@@H](C)[C@H](O[C@@H]8OC[C@@H](O)[C@H](O)[C@H]8O)[C@@H](O)[C@H]7O)C(C)(C)C6CC[C@@]5(C)[C@]3(C)CC4O)OC[C@H](O)[C@H]2O)[C@H](O)[C@H](O)[C@H]1O[C@@H]1O[C@H](CO)[C@@H](O)[C@H](O)[C@H]1O (some centres undefined)	> 4 mM (inactive)
Cc1cc(C(=O)N2CCCCCC2)cs1	> 4 mM (inactive)
CSc1ccccc1NC(=O)c1cnccn1	> 4 mM (inactive)
O=C1CCC(C(=O)NCc2cccnc2)N1 (centres undefined)	> 4 mM (inactive)
O=C(Cc1ccccc1)Nc1c[nH]c(=O)[nH]c1=O	> 4 mM (inactive)
OCCNC(=S)Nc1ccccc1	> 4 mM (inactive)
O=C1c2ccccc2C(=O)c2c(O)c(O)cc(O)c21	> 4 mM (inactive)
O=C(O)c1cc(O)c(O)c(O)c1	> 4 mM (inactive)
CC(=O)c1ccc(Cc2cnc(N)s2)cc1	> 4 mM (inactive)
Cc1ccc(/C=C2/C(=O)N=C(N)N2C)s1	> 4 mM (inactive)
CC(=O)Nc1ccc(C(=O)NC2CCSC2=O)cc1 (centres undefined)	> 4 mM (inactive)

SMILES	Kd
CSc1ccc(/C=c2\sc3ncnn3c2=O)cc1	> 4 mM (inactive)
CC(=O)CC(=O)N1C(O)CC[N+]1(C)C (centres undefined)	> 4 mM (inactive)
O=C1CSC(c2ccc3c(c2)OCO3)N1 (centres undefined)	> 4 mM (inactive)
Cc1cc(-c2ccc(Cl)cc2)n2nc(N)nc2n1	> 4 mM (inactive)
Cc1noc(C)c1C(=O)Nc1ccccc1-c1ccccc1	> 4 mM (inactive)
COc1ccc2c(c1OC)C(=O)O[C@H]2[C@H]1c2cc3c(cc2CCN1C)OCO3	> 4 mM (inactive)
COc1ccc(C2=CC(=O)C=CC2=O)cc1	> 4 mM (inactive)
O=C(Nc1cccnc1)c1c(F)c(F)c(F)c(F)c1F	> 4 mM (inactive)
Cc1nn2c(-c3ccco3)nnc2c2ccccc12	> 4 mM (inactive)
NCc1ccc2c(c1)OCO2	> 4 mM (inactive)
COc1ccccc1N1C(=N)SCC1=O	> 4 mM (inactive)
COc1cc(/C=C/C(=O)O)cc(OC)c1OC	> 4 mM (inactive)
NCC(N)C(=O)c1ccccc1 (centres undefined)	> 4 mM (inactive)
NC(N)=NCCCCN=C(N)N	> 4 mM (inactive)
O=c1[nH]c(O)c(C=NCc2cccs2)c(=O)[nH]1	> 4 mM (inactive)
COCC(=O)Nc1ccc(F)cc1F	> 4 mM (inactive)
CC1(C)C(=O)N(O)C(C)(C)C(=O)N1O	> 4 mM (inactive)
Cc1csc2nc(=O)c3ccccc3n12	> 4 mM (inactive)
COc1ccc(-c2cc(=O)c3ccccc3o2)cc1OC	> 4 mM (inactive)
O=C(Nc1cccc(O)c1)c1ccccc1	> 4 mM (inactive)
Cc1nn(CC(=O)N2CCCCC2)c(=O)c2ccccc12	> 4 mM (inactive)
NC(=O)CSc1nnc2ccc3ccccc3n12	> 4 mM (inactive)
